Results as given in PubChem BioAssay (NCI).
Values joined by “and” are separate entries in the source; they are usually repeats but may differ in a detail not shown here. Equal values may be shown once.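 Protocol summary: plate cells (96-well), add compound at 5 concentrations, incubate 48 h, interpolate endpoints linearly. At the TGI there is no net growth.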

Assays:
Test in all cases: growth of human tumour cells (NCI), 48 h
[1] = system: SK-MEL-28 melanoma
[2] = system: HCC-2998 colon
[3] = system: BT-549 breast
[4] = system: HL-60(TB) leukemia
[5] = system: MDA-MB-435
[6] = system: CAKI-1 renal
[7] = system: K-562 leukemia
[8] = system: SNB-75 CNS
[9] = system: UO-31 renal
[10] = system: PC-3 prostate
[11] = system: 786-0 renal
[12] = system: U251 CNS
[13] = system: T-47D breast
[14] = system: IGROV1 ovarian
[15] = system: OVCAR-5 ovarian
[16] = system: SF-539 CNS
[17] = system: MOLT-4 leukemia
[18] = system: DU-145 prostate

| Compound | TGI [1] [µM] | TGI [2] [µM] | TGI [3] [µM] | TGI [4] [µM] | TGI [5] | TGI [6] [µM] | TGI [7] [µM] | TGI [8] | TGI [9] | TGI [10] | TGI [11] [µM] | TGI [12] | TGI [13] | TGI [14] | TGI [15] | TGI [16] | TGI [17] | TGI [18] [µM] |
| --- | --- | --- | --- | --- | --- | --- | --- | --- | --- | --- | --- | --- | --- | --- | --- | --- | --- | --- |
| COC(=O)C(=O)C(C(=O)C(=O)Nc1nc(=S)[nH][nH]1)c1nc2ccc([N+](=O)[O-])cc2[nH]c1=O (configuration not stated) | > 100 | > 100 | > 100 | > 100 | > 100 µM | > 100 | > 100 | > 100 µM | > 100 µM | > 100 µM | > 100 | > 100 µM | > 100 µM | > 100 µM | > 100 µM | > 100 µM |  |  |
| CCCC(=O)Oc1cc(OC(=O)CCC)c2c(C)cc(=O)oc2c1 | > 100 |  |  |  | > 100 µM |  | > 100 | > 100 µM | > 100 µM | > 100 µM | > 100 | > 100 µM |  | > 100 µM | > 100 µM | > 100 µM | > 100 µM | > 100 |
| CC(=O)Oc1cc2c(n(C)c1=O)CCC2 | > 100 | > 100 | > 100 | > 100 | > 100 µM | > 100 | > 100 | > 100 µM | > 100 µM | > 100 µM | > 100 | > 100 µM |  | > 100 µM | > 100 µM | > 100 µM | > 100 µM | > 100 |
| O=c1[nH]c(Br)nc2c(N3CCCCC3)c[nH]c12 | > 100 |  |  | > 100 |  | > 100 | > 100 | > 100 µM | > 100 µM |  | > 100 | > 100 µM |  | > 100 µM | > 100 µM | > 100 µM | > 100 µM |  |
| C[C@]12CC[C@H]3[C@@H](CCC4=CC(=O)CC[C@@]43C)[C@@H]1CC[C@@H]2OC(=O)c1cccc2c(=O)c3ccccc3[nH]c12 | > 100 | > 100 | > 100 |  | > 100 µM |  | 80 | > 100 µM | > 100 µM | > 100 µM | 38.6 | > 100 µM | > 100 µM | > 100 µM | > 100 µM | > 100 µM | 89.2 µM |  |
| COC1=CC(=O)C2C(C1=O)[C@@H]1c3ccccc3OC[C@H]21 (some centres not stated) | > 100 | > 100 |  | > 100 |  | > 100 | > 100 | > 100 µM | > 100 µM |  | > 100 | > 100 µM |  |  | > 100 µM | > 100 µM | > 100 µM |  |
| COc1cccc(-c2cc(=O)c3cc(N4CCCC4)ccc3[nH]2)c1 | > 10 | 0.013 |  | < 0.001 | < 0.001 µM | > 10 | > 8.09 | > 10 µM | > 10 µM | > 10 µM | > 10 |  | > 10 µM | > 10 µM | > 10 µM | < 0.001 µM | > 10 µM | < 0.001 |
| N#C/C=C\c1ccc(-c2cc(C(F)(F)F)cc(C(F)(F)F)c2)o1 | > 100 | > 100 | 76.8 | 41.4 | 18.5 µM | > 100 | > 100 | 39.8 µM | > 100 µM | > 100 µM | 70.5 | 27.4 µM |  | > 100 µM | > 100 µM | 26.6 µM | > 100 µM | > 100 |
| Cc1nc2c(s/c(=N\N)n2-c2ccccc2)c(=O)n1C | > 100 | > 100 |  | > 100 |  | > 100 | > 100 | > 100 µM | > 100 µM |  | > 100 | > 100 µM |  | > 100 µM | > 100 µM | > 100 µM | > 100 µM |  |
| CCN1CCC(O)(/C=C/c2ccc(Cl)cc2)C(C(=O)/C=C/c2ccc(Cl)cc2)C1 (configuration not stated) | 57 | 32.8 |  | > 100 |  |  | > 100 | 74.5 µM | > 100 µM |  | 43.3 | 44.9 µM |  | 62.6 µM | > 100 µM |  | > 100 µM |  |
| COc1cc(OC)cc(Oc2nc3c(N)cc(C(F)(F)F)cc3nc2-c2ccccc2)c1 | > 100 | > 100 | > 100 | 52.4 | 66.5 µM | > 100 | 31.4 | > 100 µM | > 100 µM | > 100 µM | > 100 | > 100 µM | 8.91 µM | > 100 µM |  | > 100 µM | 81.1 µM |  |
| O=Cc1ccc2[nH]c(=O)oc2c1 | > 100 |  | > 100 | > 100 | > 100 µM | > 100 | > 100 |  | 82.7 µM | > 100 µM | > 100 | > 100 µM |  | > 100 µM | > 100 µM | > 100 µM | > 100 µM | > 100 |
| OCC(O)C(O)C(C=NNc1ncnc2ccc(Br)cc12)=NNc1ncnc2ccc(Br)cc12 (configuration not stated) | > 100 |  |  | > 100 | 76.9 µM and > 100 µM |  | > 100 | 17.6 µM and > 100 µM | 25.6 µM and > 100 µM | 77.4 µM and > 100 µM | > 100 | 67.3 µM and > 100 µM | 16.1 µM and > 100 µM | 12.2 µM and > 100 µM | 88 µM and > 100 µM | 33.7 µM and > 100 µM | 12.1 µM and > 100 µM | 9.82 |
| CCCC(=O)OC1=C(c2ccccc2)Sc2ccccc2-n2cccc21 | > 10 | > 10 |  | > 10 | > 10 µM | > 10 | > 10 | > 10 µM |  | > 10 µM | > 10 |  | > 10 µM | > 10 µM |  |  | > 10 µM | > 10 |
| NC(=O)N=Nc1c2ccccc2n2[nH]ccc12 | > 100 | > 100 |  | 58.1 | > 100 µM | > 100 | > 100 | > 100 µM |  | > 100 µM | > 100 | > 100 µM | 92.9 µM | > 100 µM | > 100 µM | > 100 µM | > 100 µM | > 100 |
